Experimental data published in ChEMBL document CHEMBL1201862, “PubChem BioAssay data set” (2004).
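Each compound was tested at five concentrations against cells in 96-well plates for 48 hours. At the GI50, growth is halved.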 Active and inactive are the calls of the source. Rule as the data show it: active = GI50 up to about 1.1 µM and inactive = higher.

Experiments:
Test in all cases: growth of human tumour cells (NCI), 48 h
OVCAR-3 = system: OVCAR-3
OVCAR-5 = system: OVCAR-5
DU-145 = system: DU-145
CAKI-1 = system: CAKI-1
A498 = system: A498
SN12C = system: SN12C
SF-539 = system: SF-539
IGROV-1 = system: IGROV-1
NCI-H460 = system: NCI-H460
M14 = system: M14
OVCAR-4 = system: OVCAR-4
T47D = system: T47D
SK-MEL-5 = system: SK-MEL-5
U-251 = system: U-251
Malme-3M = system: Malme-3M
SF-295 = system: SF-295
SK-MEL-28 = system: SK-MEL-28
MCF7 = system: MCF7
MOLT-4 = system: MOLT-4
SK-OV-3 = system: SK-OV-3
Hs-578T = system: Hs-578T
UACC-257 = system: UACC-257
K562 = system: K562
LOX IMVI = system: LOX IMVI
UACC-62 = system: UACC-62
HCT-15 = system: HCT-15
PC-3 = system: PC-3
786-0 = system: 786-0
NCI-H23 = system: NCI-H23
COLO 205 = system: COLO 205
SNB-19 = system: SNB-19
A549 = system: A549
MDA-MB-231 = system: MDA-MB-231
NCI-H226 = system: NCI-H226
SNB-75 = system: SNB-75
SW-620 = system: SW-620
KM12 = system: KM12
UO-31 = system: UO-31
HT-29 = system: HT-29
OVCAR-8 = system: OVCAR-8
SF-268 = system: SF-268
HOP-62 = system: HOP-62
CCRF-CEM = system: CCRF-CEM
HL-60 = system: HL-60
SK-MEL-2 = system: SK-MEL-2
SR = system: SR
NCI-H522 = system: NCI-H522
HCC 2998 = system: HCC 2998
ACHN = system: ACHN
HOP-92 = system: HOP-92
EKVX = system: EKVX
MDA-N = system: MDA-N
BT-549 = system: BT-549
MDA-MB-435 = system: MDA-MB-435
HCT-116 = system: HCT-116
NCI/ADR-RES = system: NCI/ADR-RES
RXF 393 = system: RXF 393
RPMI-8226 = system: RPMI-8226
TK-10 = system: TK-10

In the case of `CN(CCN(C)CCN(C)C(=O)Cc1ccc(Cl)c(Cl)c1)CCN1CCCC1`, the GI50 (OVCAR-3) is reported as 63.5 µM (inactive), the GI50 (OVCAR-5) is reported as 37.5 µM (inactive) and the GI50 (DU-145) is reported as 57.3 µM (inactive). The GI50 (CAKI-1) was 35.2 µM (inactive), the GI50 (A498) was 16.4 µM (inactive) and the GI50 (SN12C) was 39 µM (inactive). The GI50 (SF-539) was 21.8 µM (inactive), the GI50 (IGROV-1) was 31.1 µM (inactive) and the GI50 (NCI-H460) was 26.9 µM (inactive). The GI50 (M14) was 25.9 µM (inactive), the GI50 (OVCAR-4) was 77.6 µM (inactive) and the GI50 (T47D) was 24.6 µM (inactive). For the same compound, the GI50 (SK-MEL-5) was 15.2 µM (inactive), the GI50 (U-251) was 19 µM (inactive) and the GI50 (Malme-3M) was 20.5 µM (inactive). The GI50 (SF-295) was 19.6 µM (inactive), the GI50 (SK-MEL-28) was 1.94 µM (inactive) and the GI50 (MCF7) was 24.2 µM (inactive). The GI50 (MOLT-4) was 10.6 µM (inactive), the GI50 (SK-OV-3) was 46.8 µM (inactive) and the GI50 (Hs-578T) was 28.5 µM (inactive). For the same compound, the GI50 (UACC-257) was 5.11 µM (inactive), the GI50 (K562) was 3.24 µM (inactive) and the GI50 (LOX IMVI) was 16.6 µM (inactive). The GI50 (UACC-62) was 4.52 µM (inactive), the GI50 (HCT-15) was 37.3 µM and the GI50 (PC-3) was 34.7 µM (inactive). The GI50 (786-0) was 19.5 µM (inactive), the GI50 (NCI-H23) was 30.5 µM (inactive) and the GI50 (COLO 205) was 16.3 µM (inactive). For the same compound, the GI50 (SNB-19) was 39 µM (inactive), the GI50 (A549) was 37 µM (inactive) and the GI50 (MDA-MB-231) was 17.7 µM (inactive). The GI50 (NCI-H226) was 30.5 µM (inactive), the GI50 (SNB-75) was 28 µM (inactive) and the GI50 (SW-620) was 20.3 µM (inactive). For the same compound, the GI50 (KM12) was 35 µM (inactive), the GI50 (UO-31) was 1.92 µM (inactive) and the GI50 (HT-29) was 7.36 µM (inactive). The GI50 (OVCAR-8) was 34.9 µM (inactive), the GI50 (SF-268) was 41.2 µM (inactive) and the GI50 (HOP-62) was 25.4 µM (inactive). The GI50 (CCRF-CEM) was 11.6 µM (inactive), the GI50 (HL-60) was 18.2 µM (inactive) and the GI50 (SK-MEL-2) was 16 µM (inactive). For the same compound, the GI50 (SR) was 16.5 µM (inactive), the GI50 (NCI-H522) was 20.6 µM (inactive) and the GI50 (HCC 2998) was 11.7 µM (inactive). The GI50 (ACHN) was 45.9 µM (inactive), the GI50 (HOP-92) was 5.71 µM (inactive) and the GI50 (EKVX) was 45.4 µM (inactive). The GI50 (MDA-N) was 6.85 µM (inactive), the GI50 (BT-549) was 25.7 µM (inactive) and the GI50 (MDA-MB-435) was 5.68 µM (inactive). For the same compound, the GI50 (HCT-116) was 25 µM (inactive), the GI50 (NCI/ADR-RES) was > 100 µM (inactive) and the GI50 (RXF 393) was 16.2 µM (inactive). For the same compound, the GI50 (RPMI-8226) was 5.5 µM (inactive) and the GI50 (TK-10) was 26.1 µM (inactive).
